# Earlier results, collected in patent publication US20120172427A1, “(Z)-2-CYANO-3-HYDROXY-BUT-2-ENOIC ACID-(4'-TRIFLUOROMETHYLPHENYL)-AMIDE TABLET FORMULATIONS WITH IMPROVED STABILITY” (SANOFI, priority 2009, published 2012).
# Tests used:
# [1] = biological target: dihydroorotate dehydrogenase (Homo sapiens, UniProt Q02127); settings: Bruneau et al., Biochem. J. 1998
# [2] = tested on: immune cells and cell lines; settings: wide variety of immune cells and cell lines; literature
# dihydroorotate dehydrogenase, sequence (Q02127 whole entry): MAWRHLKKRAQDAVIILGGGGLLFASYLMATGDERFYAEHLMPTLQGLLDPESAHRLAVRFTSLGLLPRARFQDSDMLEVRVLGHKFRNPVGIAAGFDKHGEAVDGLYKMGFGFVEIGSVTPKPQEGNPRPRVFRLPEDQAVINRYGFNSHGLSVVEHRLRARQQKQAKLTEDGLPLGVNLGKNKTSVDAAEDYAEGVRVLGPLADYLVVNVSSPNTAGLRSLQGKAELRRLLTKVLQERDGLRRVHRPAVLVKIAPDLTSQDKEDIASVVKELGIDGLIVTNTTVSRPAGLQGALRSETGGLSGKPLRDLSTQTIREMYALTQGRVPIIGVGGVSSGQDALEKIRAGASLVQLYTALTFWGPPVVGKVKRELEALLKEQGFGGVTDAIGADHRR
smiles,measurement,setting,value
"C/C(O)=C(\C#N)C(=O)Nc1ccc(C(F)(F)F)cc1 [Teriflunomide, (Z)-2-cyano-3-hydroxy-but-2-enoic acid-(4′-trifluoromethylphenyl)-amide]",inhibition of dihydroorotate dehydrogenase,[1],inhibits
same,antiproliferative effects,[2],antiproliferative effects
